Experiments:
[1] = test system: bedstraw; experiment: Test B pre/postemergence bedstraw; assay type: in vivo, Galium aparine
How it was run: (§1)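 Herbicidal effect was estimated by eye on a ten-point control scale after plants spent twelve to sixteen days in a greenhouse following soil or foliar treatment. Foliar sprays targeted plants at one to four leaves; all doses were formulated in a non-phytotoxic solvent with surfactant.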

[2] = test system: surinam grass; experiment: Test B pre/postemergence surinam grass; assay type: in vivo, Brachiaria decumbens
How it was run: as §1

[3] = test system: cocklebur; experiment: Test B pre/postemergence cocklebur; assay type: in vivo, Xanthium strumarium
How it was run: as §1

[4] = test system: corn; experiment: Test B pre/postemergence corn; assay type: in vivo, Zea mays
How it was run: as §1

[5] = test system: crabgrass; experiment: Test B pre/postemergence crabgrass; assay type: in vivo, Digitaria sanguinalis
How it was run: as §1

[6] = test system: giant foxtail; experiment: Test B pre/postemergence giant foxtail; assay type: in vivo, Setaria faberii
How it was run: as §1

[7] = test system: morningglory; experiment: Test B pre/postemergence morningglory; assay type: in vivo, Ipomoea hederacea
How it was run: as §1

[8] = test system: pigweed; experiment: Test B pre/postemergence pigweed; assay type: in vivo, Amaranthus retroflexus
How it was run: as §1

[9] = test system: rape; experiment: Test B pre/postemergence rape; assay type: in vivo, Brassica napus
How it was run: as §1

[10] = test system: soybean; experiment: Test B pre/postemergence soybean; assay type: in vivo, Glycine max
How it was run: as §1

[11] = test system: sugar beet; experiment: Test B pre/postemergence sugar beet; assay type: in vivo, Beta vulgaris
How it was run: as §1

[12] = test system: velvetleaf; experiment: Test B pre/postemergence velvetleaf; assay type: in vivo, Abutilon theophrasti
How it was run: as §1

[13] = test system: wheat; experiment: Test B pre/postemergence wheat; assay type: in vivo, Triticum aestivum
How it was run: as §1

[14] = test system: purple nutsedge; experiment: Test B pre/postemergence purple nutsedge; assay type: in vivo, Cyperus rotundus
How it was run: as §1

[15] = test system: duck salad; experiment: Test B flood test duck salad; assay type: in vivo, Heteranthera limosa
How it was run: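 Each value is a visual injury score relative to controls, with 10 meaning complete control and 0 no effect. Evaluation took place twelve to sixteen days after the 2-leaf-stage plants were treated and kept in the greenhouse.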

[16] = Postemergence, Rate 62 g/ha, scale 0 to 10, 0 is no effect, 10 is complete control
[17] = Postemergence, Rate 250 g/ha, scale 0 to 10, 0 no effect, 10 complete control
[18] = Preemergence, Rate 31 g/ha, visual rating, scale 0 to 10 (0 no effect, 10 complete control)
[19] = Preemergence, Rate 62 g/ha, scale 0 to 10, 0 is no effect, 10 is complete control
[20] = Preemergence, Rate 125 g/ha, scale 0 to 10 (0 no effect, 10 complete control)
[21] = Preemergence, Rate 250 g/ha, scale of 0 to 10 where 0 is no effect and 10 is complete control
[22] = Rate 31 g/ha, Postemergence, scale 0 to 10
[23] = Rate 125 g/ha, Postemergence, scale 0 to 10, 0 no effect, 10 complete control

## CCN(C(=O)n1oc(=O)n(-c2c(C)cccc2C)c1=O)C1CCCCC1 [Compound 27]
[1]; [16]
  Bedstraw plant response rating: 0
[1]; [17]
  Bedstraw plant response rating: 0
[1]; [18]
  Bedstraw plant response rating: 0
[1]; [19]
  Plant response rating, Bedstraw: 0
[1]; [20]
  Plant response rating, Bedstraw: 0
[1]; [21]
  Plant response rating, Bedstraw: 0
[1]; [22]
  Bedstraw plant response rating: 0
[1]; [23]
  Bedstraw plant response rating: 0
[2]; [16]
  B. signalgrass plant response rating: 0
[2]; [17]
  B. signalgrass plant response rating: 0
[2]; [18]
  B. signalgrass plant response rating: 0
[2]; [19]
  Plant response rating, B. signalgrass: 0
[2]; [20]
  Plant response rating, B. signalgrass: 0
[2]; [21]
  Plant response rating, B. signalgrass: 0
[2]; [22]
  B. signalgrass plant response rating: 0
[2]; [23]
  B. signalgrass plant response rating: 0
[3]; [16]
  Cocklebur plant response rating: 0
[3]; [17]
  Cocklebur plant response rating: 0
[3]; [18]
  Cocklebur plant response rating: 0
[3]; [19]
  Plant response rating, Cocklebur: 0
[3]; [20]
  Plant response rating, Cocklebur: 0
[3]; [21]
  Plant response rating, Cocklebur: 0
[3]; [22]
  Cocklebur plant response rating: 0
[3]; [23]
  Cocklebur plant response rating: 0
[4]; [16]
  Corn plant response rating: 0
[4]; [17]
  Corn plant response rating: 0
[4]; [18]
  Corn plant response rating: 0
[4]; [19]
  Plant response rating, Corn: 0
[4]; [20]
  Plant response rating, Corn: 0
[4]; [21]
  Plant response rating, Corn: 0
[4]; [22]
  Corn plant response rating: 0
[4]; [23]
  Corn plant response rating: 0
[5]; [16]
  Crabgrass plant response rating: 0
[5]; [17]
  Crabgrass plant response rating: 0
[5]; [18]
  Crabgrass plant response rating: 0
[5]; [19]
  Plant response rating, Crabgrass: 0
[5]; [20]
  Plant response rating, Crabgrass: 0
[5]; [21]
  Plant response rating, Crabgrass: 0
[5]; [22]
  Crabgrass plant response rating: 0
[5]; [23]
  Crabgrass plant response rating: 0
[6]; [16]
  Giant foxtail plant response rating: 0
[6]; [17]
  Giant foxtail plant response rating: 0
[6]; [18]
  Giant foxtail plant response rating: 0
[6]; [19]
  Plant response rating, Giant foxtail: 0
[6]; [20]
  Plant response rating, Giant foxtail: 0
[6]; [21]
  Plant response rating, Giant foxtail: 0
[6]; [22]
  Giant foxtail plant response rating: 0
[6]; [23]
  Giant foxtail plant response rating: 0
[7]; [16]
  Morningglory plant response rating: 0
[7]; [17]
  Morningglory plant response rating: 0
[7]; [18]
  Morningglory plant response rating: 0
[7]; [19]
  Plant response rating, Morningglory: 0
[7]; [20]
  Plant response rating, Morningglory: 0
[7]; [21]
  Plant response rating, Morningglory: 0
[7]; [22]
  Morningglory plant response rating: 0
[7]; [23]
  Morningglory plant response rating: 0
[8]; [16]
  Redroot pigweed plant response rating: 0
[8]; [17]
  Redroot pigweed plant response rating: 0
[8]; [18]
  Redroot pigweed plant response rating: 0
[8]; [19]
  Plant response rating, Redroot pigweed: 0
[8]; [20]
  Plant response rating, Redroot pigweed: 0
[8]; [21]
  Plant response rating, Redroot pigweed: 0
[8]; [22]
  Redroot pigweed plant response rating: 0
[8]; [23]
  Redroot pigweed plant response rating: 0
[9]; [16]
  Rape plant response rating: 0
[9]; [17]
  Rape plant response rating: 0
[9]; [18]
  Rape plant response rating: 0
[9]; [19]
  Plant response rating, Rape: 0
[9]; [20]
  Plant response rating, Rape: 0
[9]; [21]
  Plant response rating, Rape: 0
[9]; [22]
  Rape plant response rating: 0
[9]; [23]
  Rape plant response rating: 0
[10]; [16]
  Soybean plant response rating: 1
[10]; [17]
  Soybean plant response rating: 2
[10]; [18]
  Soybean plant response rating: 0
[10]; [19]
  Plant response rating, Soybean: 0
[10]; [20]
  Plant response rating, Soybean: 0
[10]; [21]
  Plant response rating, Soybean: 0
[10]; [23]
  Soybean plant response rating: 1
[11]; [16]
  Sugarbeets plant response rating: 0
[11]; [17]
  Sugarbeets plant response rating: 0
[11]; [18]
  Sugarbeets plant response rating: 0
[11]; [19]
  Plant response rating, Sugarbeets: 0
[11]; [20]
  Plant response rating, Sugarbeets: 0
[11]; [21]
  Plant response rating, Sugarbeets: 0
[11]; [23]
  Sugarbeets plant response rating: 0
[12]; [16]
  Velvetleaf plant response rating: 0
[12]; [17]
  Velvetleaf plant response rating: 0
[12]; [18]
  Velvetleaf plant response rating: 0
[12]; [19]
  Plant response rating, Velvetleaf: 0
[12]; [20]
  Plant response rating, Velvetleaf: 0
[12]; [21]
  Plant response rating, Velvetleaf: 0
[12]; [23]
  Velvetleaf plant response rating: 0
[13]; [16]
  Wheat plant response rating: 0
[13]; [17]
  Wheat plant response rating: 0
[13]; [18]
  Wheat plant response rating: 0
[13]; [19]
  Plant response rating, Wheat: 0
[13]; [20]
  Plant response rating, Wheat: 0
[13]; [21]
  Plant response rating, Wheat: 0
[13]; [23]
  Wheat plant response rating: 0
[14]; [16]
  Nutsedge plant response rating: 0
[14]; [17]
  Nutsedge plant response rating: 0
[14]; [18]
  Nutsedge plant response rating: 0
[14]; [19]
  Plant response rating, Nutsedge: 0
[14]; [20]
  Plant response rating, Nutsedge: 0
[14]; [21]
  Plant response rating, Nutsedge: 0
[14]; [22]
  Nutsedge plant response rating: 0
[14]; [23]
  Nutsedge plant response rating: 0
[15]; [16]
  Ducksalad plant response rating: 0
[15]; Rate 125 g/ha, Postemergence section (flood test species), scale 0 to 10, 0 no effect, 10 complete control
  Ducksalad plant response rating: 0
[15]; Rate 500 g/ha, Postemergence section of Table B, 0 to 10 scale (0 no effect, 10 complete control)
  Ducksalad plant response rating: 0
[15]; flood test, listed under Postemergence, Rate 250 g/ha, scale 0 to 10, 0 no effect, 10 complete control
  Ducksalad plant response rating: 0

Reference: patent publication US6737383B1, “Herbicidal oxadiazolidines” (priority 1999, dated 2004)
